Measurements from the kinase profiling compilation of Christmann-Franck et al. (2016).

Legend:
Test in all cases: radiometric filter-binding kinase assay
[1] = test system: AKT1 (human), P31749 [S473D]
[2] = target: AURKA (human) (UniProt O14965)
[3] = target: BRSK2 (human) (UniProt Q8IWQ3)
[4] = target: CHEK2 (human) (UniProt O96017)
[5] = target: CaMK1 (human) (UniProt Q14012)
[6] = target: DYRK1A (human) (UniProt Q13627)
[7] = target: DYRK2 (human) (UniProt Q92630)
[8] = target: EPHB2 (human) (UniProt P29323)
[9] = target: EPHB3 (human) (UniProt P54753)
[10] = target: ERBB4 (human) (UniProt Q15303)
[11] = target: HIPK2 (human) (UniProt Q9H2X6)
[12] = target: IKBKE (human) (UniProt Q14164)
IKBKE (human), sequence (Q14164 whole entry, looked up): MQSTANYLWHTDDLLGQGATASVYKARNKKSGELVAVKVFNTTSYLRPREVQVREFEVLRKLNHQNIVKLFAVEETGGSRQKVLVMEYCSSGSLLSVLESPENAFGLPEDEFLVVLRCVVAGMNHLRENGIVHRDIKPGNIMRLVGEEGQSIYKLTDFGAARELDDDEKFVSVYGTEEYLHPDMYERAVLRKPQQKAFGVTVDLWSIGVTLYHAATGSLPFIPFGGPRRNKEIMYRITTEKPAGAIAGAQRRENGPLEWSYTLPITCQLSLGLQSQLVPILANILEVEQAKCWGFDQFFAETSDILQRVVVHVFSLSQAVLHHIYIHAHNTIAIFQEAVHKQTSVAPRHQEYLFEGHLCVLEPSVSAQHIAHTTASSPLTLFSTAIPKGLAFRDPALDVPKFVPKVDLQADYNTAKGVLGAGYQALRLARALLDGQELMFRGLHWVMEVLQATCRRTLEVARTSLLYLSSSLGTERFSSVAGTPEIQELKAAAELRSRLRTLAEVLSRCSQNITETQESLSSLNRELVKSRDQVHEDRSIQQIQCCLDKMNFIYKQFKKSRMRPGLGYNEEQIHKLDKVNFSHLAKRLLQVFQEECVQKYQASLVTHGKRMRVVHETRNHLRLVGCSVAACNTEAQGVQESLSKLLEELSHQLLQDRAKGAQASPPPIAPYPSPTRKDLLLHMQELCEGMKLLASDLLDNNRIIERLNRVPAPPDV

[13] = target: MAP2K6 (human) (UniProt P52564)
[14] = target: MAP3K11 (human) (UniProt Q16584)
[15] = target: MAPK1 (human) (UniProt P28482)
[16] = target: MAPK10 (human) (UniProt P53779)
[17] = target: MAPK12 (human) (UniProt P53778)
[18] = target: MAPK13 (human) (UniProt O15264)
[19] = target: MAPK3 (human) (UniProt P27361)
[20] = target: MAPK8 (human) (UniProt P45983)
[21] = target: MAPKAPK3 (human) (UniProt Q16644)
MAPKAPK3 (human), sequence (Q16644 whole entry, looked up): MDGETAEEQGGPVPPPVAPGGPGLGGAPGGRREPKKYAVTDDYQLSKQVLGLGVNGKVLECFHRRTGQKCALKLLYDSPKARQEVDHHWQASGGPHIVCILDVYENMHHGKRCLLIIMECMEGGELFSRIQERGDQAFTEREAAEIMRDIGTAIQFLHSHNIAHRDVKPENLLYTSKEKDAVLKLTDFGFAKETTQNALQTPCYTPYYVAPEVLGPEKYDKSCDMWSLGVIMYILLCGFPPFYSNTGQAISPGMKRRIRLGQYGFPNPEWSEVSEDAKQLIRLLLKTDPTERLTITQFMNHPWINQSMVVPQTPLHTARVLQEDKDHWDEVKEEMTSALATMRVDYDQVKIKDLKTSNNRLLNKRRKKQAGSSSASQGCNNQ

[22] = target: MARK2 (human) (UniProt Q7KZI7)
[23] = target: MKNK1 (human) (UniProt Q9BUB5)
[24] = target: MST4 (human) (UniProt Q9P289)
MST4 (human), sequence (Q9P289 whole entry, looked up): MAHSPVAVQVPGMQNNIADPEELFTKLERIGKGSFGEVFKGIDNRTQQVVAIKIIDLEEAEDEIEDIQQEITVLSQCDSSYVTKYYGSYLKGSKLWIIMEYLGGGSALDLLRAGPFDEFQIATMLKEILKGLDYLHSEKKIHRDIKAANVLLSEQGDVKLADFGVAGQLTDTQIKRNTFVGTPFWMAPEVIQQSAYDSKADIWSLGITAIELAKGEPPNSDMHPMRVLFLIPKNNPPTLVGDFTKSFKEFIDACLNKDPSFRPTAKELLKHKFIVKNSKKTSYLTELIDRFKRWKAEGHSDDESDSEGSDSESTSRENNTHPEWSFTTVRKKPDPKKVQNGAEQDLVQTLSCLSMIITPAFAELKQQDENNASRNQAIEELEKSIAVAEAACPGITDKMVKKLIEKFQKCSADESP

[25] = target: NEK2 (human) (UniProt P51955)
[26] = target: NUAK1 (human) (UniProt O60285)
[27] = target: PAK4 (human) (UniProt O96013)
[28] = target: PAK7 (human) (UniProt Q9P286)
PAK7 (human), sequence (Q9P286 whole entry, looked up): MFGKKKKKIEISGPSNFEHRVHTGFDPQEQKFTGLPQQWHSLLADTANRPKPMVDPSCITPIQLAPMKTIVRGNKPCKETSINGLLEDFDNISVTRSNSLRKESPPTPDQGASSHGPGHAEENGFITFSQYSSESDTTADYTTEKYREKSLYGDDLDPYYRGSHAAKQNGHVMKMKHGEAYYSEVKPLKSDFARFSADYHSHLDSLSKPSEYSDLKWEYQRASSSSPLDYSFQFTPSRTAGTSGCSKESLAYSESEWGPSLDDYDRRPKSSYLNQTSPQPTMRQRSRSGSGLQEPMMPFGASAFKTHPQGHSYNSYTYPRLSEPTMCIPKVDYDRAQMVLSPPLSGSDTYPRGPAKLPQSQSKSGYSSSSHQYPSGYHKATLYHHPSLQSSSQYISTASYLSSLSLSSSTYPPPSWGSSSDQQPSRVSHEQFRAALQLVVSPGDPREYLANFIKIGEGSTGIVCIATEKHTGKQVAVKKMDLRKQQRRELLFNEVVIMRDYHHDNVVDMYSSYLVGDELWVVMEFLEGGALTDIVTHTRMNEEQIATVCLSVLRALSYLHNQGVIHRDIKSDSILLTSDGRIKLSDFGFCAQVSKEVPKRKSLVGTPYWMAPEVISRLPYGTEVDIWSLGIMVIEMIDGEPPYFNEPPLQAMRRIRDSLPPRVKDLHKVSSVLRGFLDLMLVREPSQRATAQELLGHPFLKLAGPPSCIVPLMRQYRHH

[29] = target: PLK1 (human) (UniProt P53350)
[30] = test system: PRKAA1 or PRKAA2 (rat); settings: accession and sequence are those of the human protein
[31] = target: PRKACA (human) (UniProt P17612)
[32] = target: PRKCA (human) (UniProt P17252)
[33] = target: RPS6KA1 KD1 KD2 (human) (UniProt Q15418)
RPS6KA1 KD1 KD2 (human), sequence (Q15418 whole entry, looked up): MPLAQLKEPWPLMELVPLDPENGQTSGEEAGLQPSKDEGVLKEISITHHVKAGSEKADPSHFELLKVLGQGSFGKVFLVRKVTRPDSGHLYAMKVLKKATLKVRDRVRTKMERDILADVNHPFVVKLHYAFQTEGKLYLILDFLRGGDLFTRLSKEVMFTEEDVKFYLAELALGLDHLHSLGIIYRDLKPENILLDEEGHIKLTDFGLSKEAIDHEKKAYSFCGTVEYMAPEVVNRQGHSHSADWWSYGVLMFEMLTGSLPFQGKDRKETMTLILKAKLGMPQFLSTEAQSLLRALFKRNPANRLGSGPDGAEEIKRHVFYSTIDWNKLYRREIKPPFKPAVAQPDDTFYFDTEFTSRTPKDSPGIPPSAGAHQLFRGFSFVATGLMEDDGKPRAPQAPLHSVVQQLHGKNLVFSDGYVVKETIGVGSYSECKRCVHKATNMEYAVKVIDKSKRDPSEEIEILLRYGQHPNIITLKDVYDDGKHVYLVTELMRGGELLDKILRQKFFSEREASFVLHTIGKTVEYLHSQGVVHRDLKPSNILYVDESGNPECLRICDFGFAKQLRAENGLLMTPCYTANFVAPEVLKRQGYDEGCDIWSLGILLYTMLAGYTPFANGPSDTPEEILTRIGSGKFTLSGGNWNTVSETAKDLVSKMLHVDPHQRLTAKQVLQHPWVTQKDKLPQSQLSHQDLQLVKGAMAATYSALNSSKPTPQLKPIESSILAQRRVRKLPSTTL

[34] = test system: SGK1 (human), O00141 [S422D]
SGK1 (human), O00141 [S422D], sequence (O00141 whole entry S422D, looked up): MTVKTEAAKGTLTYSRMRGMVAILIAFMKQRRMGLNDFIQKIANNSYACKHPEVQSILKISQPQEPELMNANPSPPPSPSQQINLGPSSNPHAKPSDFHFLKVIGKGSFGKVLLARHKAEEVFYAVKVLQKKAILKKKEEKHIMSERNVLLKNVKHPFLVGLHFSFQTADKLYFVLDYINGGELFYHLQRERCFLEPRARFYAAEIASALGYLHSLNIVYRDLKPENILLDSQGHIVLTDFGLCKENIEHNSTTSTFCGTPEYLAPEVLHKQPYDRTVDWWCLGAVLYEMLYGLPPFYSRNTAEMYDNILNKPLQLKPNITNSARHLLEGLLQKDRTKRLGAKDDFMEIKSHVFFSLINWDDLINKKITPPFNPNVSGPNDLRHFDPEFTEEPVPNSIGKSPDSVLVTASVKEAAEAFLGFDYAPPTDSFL

[35] = target: SYK (human) (UniProt P43405)

AKT1 (human), P31749 [S473D], sequence (P31749 whole entry S473D, looked up): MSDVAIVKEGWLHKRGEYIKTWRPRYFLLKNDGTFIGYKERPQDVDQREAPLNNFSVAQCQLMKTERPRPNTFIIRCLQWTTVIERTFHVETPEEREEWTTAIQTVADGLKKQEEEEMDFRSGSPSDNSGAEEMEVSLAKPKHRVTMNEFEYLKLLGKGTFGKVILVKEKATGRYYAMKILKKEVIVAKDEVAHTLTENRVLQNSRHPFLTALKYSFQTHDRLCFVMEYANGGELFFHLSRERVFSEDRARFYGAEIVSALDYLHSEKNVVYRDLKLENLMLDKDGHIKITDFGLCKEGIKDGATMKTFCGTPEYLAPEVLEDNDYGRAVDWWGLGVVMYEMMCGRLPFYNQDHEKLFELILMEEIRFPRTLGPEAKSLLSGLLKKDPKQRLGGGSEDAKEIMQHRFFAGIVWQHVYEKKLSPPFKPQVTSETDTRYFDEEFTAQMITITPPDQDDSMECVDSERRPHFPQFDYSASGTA
CHEK2 (human), sequence (O96017 whole entry, looked up): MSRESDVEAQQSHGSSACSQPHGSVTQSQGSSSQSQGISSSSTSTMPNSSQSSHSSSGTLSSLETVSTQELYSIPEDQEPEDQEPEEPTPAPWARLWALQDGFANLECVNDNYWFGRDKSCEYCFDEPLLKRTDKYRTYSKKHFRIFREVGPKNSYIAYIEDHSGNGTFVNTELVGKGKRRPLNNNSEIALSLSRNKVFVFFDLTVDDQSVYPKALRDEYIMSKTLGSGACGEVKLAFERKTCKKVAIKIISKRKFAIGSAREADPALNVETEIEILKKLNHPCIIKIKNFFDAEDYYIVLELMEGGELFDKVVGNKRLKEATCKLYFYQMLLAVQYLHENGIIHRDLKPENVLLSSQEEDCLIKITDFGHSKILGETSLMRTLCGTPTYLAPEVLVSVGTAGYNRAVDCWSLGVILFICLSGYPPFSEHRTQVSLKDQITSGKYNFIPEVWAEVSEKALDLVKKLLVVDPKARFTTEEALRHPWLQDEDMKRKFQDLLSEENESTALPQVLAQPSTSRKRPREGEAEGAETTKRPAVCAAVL
CaMK1 (human), sequence (Q14012 whole entry, looked up): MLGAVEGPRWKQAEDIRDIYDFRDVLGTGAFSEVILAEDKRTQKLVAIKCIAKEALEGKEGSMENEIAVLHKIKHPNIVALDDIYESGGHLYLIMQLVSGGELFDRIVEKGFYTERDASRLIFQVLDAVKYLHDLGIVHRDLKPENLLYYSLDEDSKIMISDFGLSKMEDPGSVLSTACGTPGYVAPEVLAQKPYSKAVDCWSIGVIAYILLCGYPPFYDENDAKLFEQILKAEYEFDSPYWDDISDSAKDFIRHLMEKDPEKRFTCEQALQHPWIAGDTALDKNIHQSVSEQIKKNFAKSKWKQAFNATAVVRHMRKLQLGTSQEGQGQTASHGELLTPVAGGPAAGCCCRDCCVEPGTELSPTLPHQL

NC1(c2ccc(-c3nc4ccn5c(=O)[nH]nc5c4cc3-c3ccccc3)cc2)CCC1
residual activity ([1]; compound 0.1 µM): 103% | residual activity ([1]; compound 1.0 µM): 96% | residual activity ([1]; compound 10.0 µM): 75% | residual activity ([2]; compound 0.1 µM): 114% | residual activity ([2]; compound 1.0 µM): 89% | residual activity ([2]; compound 10.0 µM): 93% | residual activity ([3]; compound 0.1 µM): 102% | residual activity ([3]; compound 1.0 µM): 88% | residual activity ([3]; compound 10.0 µM): 94% | residual activity ([4]; compound 0.1 µM): 122% | residual activity ([4]; compound 1.0 µM): 81% | residual activity ([4]; compound 10.0 µM): 39% | residual activity ([5]; compound 0.1 µM): 108% | residual activity ([5]; compound 1.0 µM): 87% | residual activity ([5]; compound 10.0 µM): 35% | residual activity ([6]; compound 0.1 µM): 95% | residual activity ([6]; compound 1.0 µM): 88% | residual activity ([6]; compound 10.0 µM): 57% | residual activity ([7]; compound 0.1 µM): 96% | residual activity ([7]; compound 1.0 µM): 96% | residual activity ([7]; compound 10.0 µM): 87% | residual activity ([8]; compound 0.1 µM): 107% | residual activity ([8]; compound 1.0 µM): 93% | residual activity ([8]; compound 10.0 µM): 74% | residual activity ([9]; compound 0.1 µM): 112% | residual activity ([9]; compound 1.0 µM): 99% | residual activity ([9]; compound 10.0 µM): 105% | residual activity ([10]; compound 0.1 µM): 111% | residual activity ([10]; compound 1.0 µM): 95% | residual activity ([11]; compound 0.1 µM): 102% | residual activity ([11]; compound 1.0 µM): 97% | residual activity ([11]; compound 10.0 µM): 80% | residual activity ([12]; compound 0.1 µM): 88% | residual activity ([12]; compound 1.0 µM): 90% | residual activity ([12]; compound 10.0 µM): 91% | residual activity ([13]; compound 0.1 µM): 109% | residual activity ([13]; compound 1.0 µM): 98% | residual activity ([13]; compound 10.0 µM): 104% | residual activity ([14]; compound 0.1 µM): 103% | residual activity ([14]; compound 1.0 µM): 97% | residual activity ([14]; compound 10.0 µM): 81% | residual activity ([15]; compound 0.1 µM): 104% | residual activity ([15]; compound 1.0 µM): 96% | residual activity ([15]; compound 10.0 µM): 75% | residual activity ([16]; compound 0.1 µM): 93% | residual activity ([16]; compound 1.0 µM): 91% | residual activity ([16]; compound 10.0 µM): 84% | residual activity ([17]; compound 0.1 µM): 94% | residual activity ([17]; compound 1.0 µM): 94% | residual activity ([17]; compound 10.0 µM): 101% | residual activity ([18]; compound 0.1 µM): 100% | residual activity ([18]; compound 1.0 µM): 90% | residual activity ([18]; compound 10.0 µM): 106% | residual activity ([19]; compound 0.1 µM): 108% | residual activity ([19]; compound 1.0 µM): 87% | residual activity ([19]; compound 10.0 µM): 93% | residual activity ([20]; compound 0.1 µM): 100% | residual activity ([20]; compound 1.0 µM): 100% | residual activity ([20]; compound 10.0 µM): 87% | residual activity ([21]; compound 0.1 µM): 88% | residual activity ([21]; compound 1.0 µM): 107% | residual activity ([21]; compound 10.0 µM): 94% | residual activity ([22]; compound 0.1 µM): 102% | residual activity ([22]; compound 1.0 µM): 97% | residual activity ([22]; compound 10.0 µM): 94% | residual activity ([23]; compound 0.1 µM): 105% | residual activity ([23]; compound 1.0 µM): 104% | residual activity ([23]; compound 10.0 µM): 58% | residual activity ([24]; compound 0.1 µM): 95% | residual activity ([24]; compound 1.0 µM): 103% | residual activity ([24]; compound 10.0 µM): 105% | residual activity ([25]; compound 0.1 µM): 95% | residual activity ([25]; compound 1.0 µM): 87% | residual activity ([25]; compound 10.0 µM): 87% | residual activity ([26]; compound 0.1 µM): 101% | residual activity ([26]; compound 1.0 µM): 102% | residual activity ([27]; compound 0.1 µM): 75% | residual activity ([27]; compound 1.0 µM): 78% | residual activity ([27]; compound 10.0 µM): 66% | residual activity ([28]; compound 0.1 µM): 101% | residual activity ([28]; compound 1.0 µM): 96% | residual activity ([28]; compound 10.0 µM): 75% | residual activity ([29]; compound 1.0 µM): 105% | residual activity ([29]; compound 10.0 µM): 94% | residual activity ([30]; compound 0.1 µM): 98% | residual activity ([30]; compound 1.0 µM): 85% | residual activity ([30]; compound 10.0 µM): 83% | residual activity ([31]; compound 0.1 µM): 104% | residual activity ([31]; compound 1.0 µM): 91% | residual activity ([31]; compound 10.0 µM): 90% | residual activity ([32]; compound 0.1 µM): 97% | residual activity ([32]; compound 1.0 µM): 94% | residual activity ([32]; compound 10.0 µM): 98% | residual activity ([33]; compound 0.1 µM): 101% | residual activity ([33]; compound 1.0 µM): 87% | residual activity ([33]; compound 10.0 µM): 62% | residual activity ([34]; compound 0.1 µM): 90% | residual activity ([34]; compound 1.0 µM): 85% | residual activity ([34]; compound 10.0 µM): 63% | residual activity ([35]; compound 0.1 µM): 116% | residual activity ([35]; compound 1.0 µM): 100% | residual activity ([35]; compound 10.0 µM): 96%

O=C(NOCC(O)CO)c1ccc(F)c(F)c1Nc1ccc(I)cc1Cl (stereo not drawn)
residual activity ([1]; compound 10.0 µM): 99% | residual activity ([2]; compound 1.0 µM): 103% | residual activity ([2]; compound 10.0 µM): 104% | residual activity ([3]; compound 1.0 µM): 108% | residual activity ([3]; compound 10.0 µM): 105% | residual activity ([4]; compound 1.0 µM): 104% | residual activity ([4]; compound 10.0 µM): 93% | residual activity ([5]; compound 1.0 µM): 106% | residual activity ([5]; compound 10.0 µM): 84% | residual activity ([6]; compound 1.0 µM): 91% | residual activity ([6]; compound 10.0 µM): 85% | residual activity ([7]; compound 1.0 µM): 107% | residual activity ([7]; compound 10.0 µM): 111% | residual activity ([8]; compound 10.0 µM): 77% | residual activity ([9]; compound 1.0 µM): 113% | residual activity ([9]; compound 10.0 µM): 82% | residual activity ([10]; compound 1.0 µM): 86% | residual activity ([10]; compound 10.0 µM): 82% | residual activity ([11]; compound 1.0 µM): 102% | residual activity ([11]; compound 10.0 µM): 106% | residual activity ([12]; compound 1.0 µM): 102% | residual activity ([12]; compound 10.0 µM): 103% | residual activity ([13]; compound 1.0 µM): 90% | residual activity ([13]; compound 10.0 µM): 67% | residual activity ([14]; compound 1.0 µM): 83% | residual activity ([14]; compound 10.0 µM): 89% | residual activity ([15]; compound 1.0 µM): 83% | residual activity ([15]; compound 10.0 µM): 79% | residual activity ([16]; compound 1.0 µM): 83% | residual activity ([17]; compound 1.0 µM): 80% | residual activity ([17]; compound 10.0 µM): 96% | residual activity ([18]; compound 1.0 µM): 84% | residual activity ([18]; compound 10.0 µM): 97% | residual activity ([19]; compound 1.0 µM): 100% | residual activity ([19]; compound 10.0 µM): 101% | residual activity ([20]; compound 1.0 µM): 87% | residual activity ([20]; compound 10.0 µM): 93% | residual activity ([21]; compound 1.0 µM): 94% | residual activity ([21]; compound 10.0 µM): 77% | residual activity ([22]; compound 1.0 µM): 101% | residual activity ([22]; compound 10.0 µM): 101% | residual activity ([23]; compound 1.0 µM): 106% | residual activity ([23]; compound 10.0 µM): 95% | residual activity ([24]; compound 1.0 µM): 107% | residual activity ([24]; compound 10.0 µM): 94% | residual activity ([25]; compound 1.0 µM): 98% | residual activity ([25]; compound 10.0 µM): 94% | residual activity ([26]; compound 1.0 µM): 108% | residual activity ([26]; compound 10.0 µM): 95% | residual activity ([27]; compound 1.0 µM): 98% | residual activity ([27]; compound 10.0 µM): 77% | residual activity ([28]; compound 1.0 µM): 102% | residual activity ([28]; compound 10.0 µM): 86% | residual activity ([29]; compound 1.0 µM): 97% | residual activity ([29]; compound 10.0 µM): 93% | residual activity ([30]; compound 1.0 µM): 111% | residual activity ([30]; compound 10.0 µM): 120% | residual activity ([31]; compound 1.0 µM): 94% | residual activity ([31]; compound 10.0 µM): 103% | residual activity ([32]; compound 1.0 µM): 93% | residual activity ([32]; compound 10.0 µM): 86% | residual activity ([33]; compound 1.0 µM): 122% | residual activity ([33]; compound 10.0 µM): 98% | residual activity ([34]; compound 1.0 µM): 71% | residual activity ([34]; compound 10.0 µM): 111% | residual activity ([35]; compound 10.0 µM): 77%
